This is an account of results in US10112929B2, “Lactams as inhibitors of rock” (BRISTOL-MYERS SQUIBB COMPANY, priority 2015, dated 2018).
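Further: rho kinase enzyme reaction halted with EDTA, phospho- and non-phospho peptide separated for read-out, kinase activity inhibition derived across a dose-response series, DMSO under 2%.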

T1 sequence (O75116 whole entry, species assumed): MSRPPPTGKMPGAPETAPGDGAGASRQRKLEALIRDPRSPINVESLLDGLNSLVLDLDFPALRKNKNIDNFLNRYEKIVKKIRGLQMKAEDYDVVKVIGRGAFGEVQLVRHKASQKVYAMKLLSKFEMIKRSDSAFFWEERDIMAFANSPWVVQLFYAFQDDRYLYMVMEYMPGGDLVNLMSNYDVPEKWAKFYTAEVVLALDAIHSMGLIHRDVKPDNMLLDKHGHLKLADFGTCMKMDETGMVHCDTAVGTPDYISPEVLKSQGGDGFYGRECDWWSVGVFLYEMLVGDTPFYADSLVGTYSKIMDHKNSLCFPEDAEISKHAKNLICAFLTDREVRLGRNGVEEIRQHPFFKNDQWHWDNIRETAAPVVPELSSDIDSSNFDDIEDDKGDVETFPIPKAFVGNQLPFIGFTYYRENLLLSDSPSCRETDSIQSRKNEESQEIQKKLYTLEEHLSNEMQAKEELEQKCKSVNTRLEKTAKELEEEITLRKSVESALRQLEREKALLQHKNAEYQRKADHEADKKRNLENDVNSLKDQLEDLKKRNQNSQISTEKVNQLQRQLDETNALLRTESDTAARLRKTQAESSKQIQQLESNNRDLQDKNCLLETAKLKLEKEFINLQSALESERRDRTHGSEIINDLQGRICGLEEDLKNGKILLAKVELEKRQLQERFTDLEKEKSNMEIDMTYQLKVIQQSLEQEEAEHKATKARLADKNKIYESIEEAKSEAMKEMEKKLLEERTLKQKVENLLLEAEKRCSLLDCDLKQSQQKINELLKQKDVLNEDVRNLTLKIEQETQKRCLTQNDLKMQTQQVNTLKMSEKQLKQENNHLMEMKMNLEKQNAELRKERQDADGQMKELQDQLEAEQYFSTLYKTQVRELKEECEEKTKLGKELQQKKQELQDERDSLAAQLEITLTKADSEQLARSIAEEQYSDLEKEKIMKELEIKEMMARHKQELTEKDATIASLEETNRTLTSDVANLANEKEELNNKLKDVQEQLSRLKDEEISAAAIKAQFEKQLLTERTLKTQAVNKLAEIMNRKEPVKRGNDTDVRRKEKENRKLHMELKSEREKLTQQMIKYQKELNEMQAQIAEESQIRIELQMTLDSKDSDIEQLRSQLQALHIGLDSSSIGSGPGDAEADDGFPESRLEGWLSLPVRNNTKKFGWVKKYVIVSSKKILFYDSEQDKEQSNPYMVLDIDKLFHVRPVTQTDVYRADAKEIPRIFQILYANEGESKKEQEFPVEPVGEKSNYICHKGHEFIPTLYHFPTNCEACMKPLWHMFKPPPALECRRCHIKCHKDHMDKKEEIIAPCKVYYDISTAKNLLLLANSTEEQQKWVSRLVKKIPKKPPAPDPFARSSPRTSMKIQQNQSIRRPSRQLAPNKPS

One assay has as its target T1, ROCK2 (Homo sapiens (Human), UniProt O75116).
Test: not given
The term IC50 denotes the midpoint of a concentration-inhibition curve. A higher IC50 goes with weaker potency. On to `COc1cc(NC2CCN(c3ccc(-c4cn[nH]c4)c(OCCN(C)C)c3)C2=O)ccc1F` (racemic) [Example 347, 1-(3-(2-(dimethylamino)ethoxy)-4-(1H-pyrazol-4-yl)phenyl)-3-((4-fluoro-3-methoxyphenyl)amino)pyrrolidin-2-one], for which the concentration for half-maximal inhibition (IC50) lay within 100 to 2200 nM. Take `COc1ccc(NC2CCN(c3ccc(-c4cn[nH]c4)cc3)C2=O)cc1F` (single isomer, unassigned) [Example 14, 1-(4-(1H-pyrazol-4-yl)phenyl)-3-((3-fluoro-4-methoxyphenyl)amino)pyrrolidin-2-one]: the IC50 was 100 to 2200 nM.

The molecule `COc1ccc(NC2CCN(c3ccc(-c4cn[nH]c4)cc3)C2=O)c(F)c1` (single isomer, unassigned) [Example 20, 1-(4-(1H-pyrazol-4-yl)phenyl)-3-((2-fluoro-4-methoxyphenyl)amino)pyrrolidin-2-one] showed an IC50 of 100 to 2200 nM.

In the case of `COc1cc(NC2CCN(c3ccc(-c4cn[nH]c4)cc3)C2=O)cc(OC)c1` (single isomer, unassigned) [Example 22, 1-(4-(1H-pyrazol-4-yl)phenyl)-3-((3,5-dimethoxyphenyl)amino)pyrrolidin-2-one], the IC50 fell in the range of 100 to 2200 nM. For `COc1cc(F)cc(NC2CCN(c3ccc(-c4cn[nH]c4)cc3)C2=O)c1` (single isomer, unassigned) [Example 27, 1-(4-(1H-pyrazol-4-yl)phenyl)-3-((3-fluoro-5-methoxyphenyl)amino)pyrrolidin-2-one], the IC50 was less than 10 nM. `COc1cccc(NC2CCN(c3ccc(-c4cn[nH]c4)cc3)C2=O)c1` (single isomer, unassigned) [Example 29, 1-(4-(1H-pyrazol-4-yl)phenyl)-3-((3-methoxyphenyl)amino)pyrrolidin-2-one] displayed an IC50 of less than 10 nM. Molecule `CCOc1cc(N2CCC(Nc3ccc(F)c(OC)c3)C2=O)ccc1-c1cn[nH]c1` (single isomer, unassigned) [Example 39, 1-(3-ethoxy-4-(1H-pyrazol-4-yl)phenyl)-3-((4-fluoro-3-methoxyphenyl)amino)pyrrolidin-2-one] returned an IC50 of 10 to 100 nM. In the case of `CCOc1cc(N2CCC(Nc3cc(OC)ccc3F)C2=O)ccc1-c1cn[nH]c1` (single isomer, unassigned) [Example 41, 1-(3-ethoxy-4-(1H-pyrazol-4-yl)phenyl)-3-((2-fluoro-5-methoxyphenyl)amino)pyrrolidin-2-one], the IC50 fell in the range of 100 to 2200 nM. On the same count and under the same terms, then `O=C1C(Nc2ccccc2)CCN1c1ccc(-c2cn[nH]c2)c(F)c1` (single isomer, unassigned) [Example 44, 1-(3-fluoro-4-(1H-pyrazol-4-yl)phenyl)-3-(phenylamino)pyrrolidin-2-one], with less than 10 nM.

`COc1cccc(NC2CCN(c3ccc(-c4cn[nH]c4)c(F)c3)C2=O)c1` (single isomer, unassigned) [Example 46, 1-(3-fluoro-4-(1H-pyrazol-4-yl)phenyl)-3-((3-methoxyphenyl)amino)pyrrolidin-2-one] showed a 50% inhibitory concentration (IC50) of less than 10 nM. Regarding `COc1cc(F)cc(NC2CCN(c3ccc(-c4cn[nH]c4)c(F)c3)C2=O)c1` (single isomer, unassigned) [Example 50, 1-(3-fluoro-4-(1 H-pyrazol-4-yl)phenyl)-3-((3-fluoro-5-methoxyphenyl)amino)pyrrolidin-2-one], the IC50 was less than 10 nM. The molecule `O=C1C(Nc2ccc3c(c2)OC(F)(F)O3)CCN1c1ccc(-c2cn[nH]c2)cc1` (single isomer, unassigned) [Example 54, 1-(4-(1H-pyrazol-4-yl)phenyl)-3-((2,2-difluorobenzo[d][1,3]dioxol-5-yl)amino)pyrrolidin-2-one] had an IC50 of 100 to 2200 nM.

With `COc1cccc(NC2CCN(c3ccc(-c4cn[nH]c4)c(OC)c3)C2=O)c1` (single isomer, unassigned) [Example 75, 1-(3-methoxy-4-(1H-pyrazol-4-yl)phenyl)-3-((3-methoxyphenyl)amino)pyrrolidin-2-one], the IC50 is less than 10 nM. In turn, `COc1cccc(NC2CCN(c3ccc(-c4ccnc(N)n4)cc3)C2=O)c1` (single isomer, unassigned) [Example 79, 1-(4-(2-aminopyrimidin-4-yl)phenyl)-3-((3-methoxyphenyl)amino)pyrrolidin-2-one] gave an IC50 of 10 to 100 nM. Same read-out and setting: the value for `COc1cc(NC2CCN(c3ccc(-c4cn[nH]c4)cn3)C2=O)ccc1F` (single isomer, unassigned) [Example 84, 1-(5-(1H-pyrazol-4-yl)pyridin-2-yl)-3-((4-fluoro-3-methoxyphenyl)amino)pyrrolidin-2-one] was 10 to 100 nM; that for `COc1cccc(NC2CCN(c3ccc(-c4cn[nH]c4)cn3)C2=O)c1` (single isomer, unassigned) [Example 86, 1-(5-(1H-pyrazol-4-yl)pyridin-2-yl)-3-((3-methoxyphenyl)amino)pyrrolidin-2-one] was less than 10 nM; that for `COc1cc(F)cc(NC2CCN(c3ccc(-c4cn[nH]c4)cn3)C2=O)c1` (single isomer, unassigned) [Example 87, 1-(5-(1H-pyrazol-4-yl)pyridin-2-yl)-3-((3-fluoro-5-methoxyphenyl)amino)pyrrolidin-2-one] was 10 to 100 nM.

Molecule `COc1cc(NC2CCN(c3ccc(-c4cn[nH]c4)c(OC(F)F)c3)C2=O)ccc1F` (single isomer, unassigned) [Example 107, 1-[3-(difluoromethoxy)-4-(1H-pyrazol-4-yl)phenyl]-3-[(4-fluoro-3-methoxyphenyl)amino]pyrrolidin-2-one] came in with an IC50 of 10 to 100 nM. As to `COc1cccc(OC2CCN(c3ccc(-c4ccc5cn[nH]c5c4)c(OC)n3)C2=O)c1` (single isomer, unassigned) [Example 125, 1-(5-(1H-indazol-6-yl)-6-methoxypyridin-2-yl)-3-(3-methoxyphenoxy)pyrrolidin-2-one], the IC50 lay within 100 to 2200 nM. On the same count and under the same terms, the value for `COc1cc(N2CCC(Nc3c(F)cccc3OC)C2=O)ccc1-c1cn[nH]c1` (single isomer, unassigned) [Example 136, 3-((2-fluoro-6-methoxyphenyl)amino)-1-(3-methoxy-4-(1H-pyrazol-4-yl)phenyl) pyrrolidin-2-one] was 10 to 100 nM; that for `COc1cc(F)cc(NC2CCN(c3ccc(-c4cn[nH]c4)c(OC)c3)C2=O)c1` (single isomer, unassigned) [Example 138, 3-((3-fluoro-5-methoxyphenyl)amino)-1-(3-methoxy-4-(1H-pyrazol-4-yl)phenyl) pyrrolidin-2-one] was less than 10 nM.

`COc1cc(NC2CCN(c3ccc(-c4cn[nH]c4)c(OC)c3)C2=O)cc(OC)c1` (single isomer, unassigned) [Example 140, 3-((3,5-dimethoxyphenyl)amino)-1-(3-methoxy-4-(1H-pyrazol-4-yl)phenyl) pyrrolidin-2-one] came in with an IC50 of 100 to 2200 nM.

A further assay concerns the target T1, ROCK2. Briefly: biochemical.
Molecule `O=C1[C@H](N2CCCc3ccccc32)CCN1c1ccc(-c2cn[nH]c2)cc1` [Example 394, (R)-1-(4-(1H-pyrazol-4-yl)phenyl)-3-(3,4-dihydroquinolin-1(2H)-yl)pyrrolidin-2-one] came in with an IC50 of 10 to 100 nM. On the same count and under the same terms, the value for `O=C1[C@H](Nc2ccc3c(c2)OCO3)CCN1c1ccc(-c2cn[nH]c2)cc1` [Example 396, (R)-1-(4-(1H-pyrazol-4-yl)phenyl)-3-(benzo[d][1,3]dioxo1-5-ylamino)pyrrolidin-2-one] was 10 to 100 nM.
